Data from patent publication US20240208992A1, “MACROCYCLES AS CFTR MODULATORS” (Idorsia Pharmaceuticals Ltd, priority 2021, published 2024).

Target: human F508del-CFTR (Homo sapiens, UniProt P13569, DEL508-508)
Test: F508del-CFTR cell surface expression (corrector activity), DiscoveRx ß-galactosidase complementation chemiluminescence assay in recombinant U2OS cell line;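 note: U2OS cells co-expressing ProLink-tagged F508del-CFTR and a membrane-anchored enzyme acceptor, where more surface CFTR restores β-galactosidase activity measured by chemiluminescence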
Conditions: for EC50: EC50, F508del-CFTR cell surface expression, U2OS cells, 16h compound incubation, geomean values; for Emax: U2OS, in relation to Emax of corrector lumacaftor (=100%), arithmetic mean values

Sequence of human F508del-CFTR (P13569 with tags, fused parts or gaps DEL508-508): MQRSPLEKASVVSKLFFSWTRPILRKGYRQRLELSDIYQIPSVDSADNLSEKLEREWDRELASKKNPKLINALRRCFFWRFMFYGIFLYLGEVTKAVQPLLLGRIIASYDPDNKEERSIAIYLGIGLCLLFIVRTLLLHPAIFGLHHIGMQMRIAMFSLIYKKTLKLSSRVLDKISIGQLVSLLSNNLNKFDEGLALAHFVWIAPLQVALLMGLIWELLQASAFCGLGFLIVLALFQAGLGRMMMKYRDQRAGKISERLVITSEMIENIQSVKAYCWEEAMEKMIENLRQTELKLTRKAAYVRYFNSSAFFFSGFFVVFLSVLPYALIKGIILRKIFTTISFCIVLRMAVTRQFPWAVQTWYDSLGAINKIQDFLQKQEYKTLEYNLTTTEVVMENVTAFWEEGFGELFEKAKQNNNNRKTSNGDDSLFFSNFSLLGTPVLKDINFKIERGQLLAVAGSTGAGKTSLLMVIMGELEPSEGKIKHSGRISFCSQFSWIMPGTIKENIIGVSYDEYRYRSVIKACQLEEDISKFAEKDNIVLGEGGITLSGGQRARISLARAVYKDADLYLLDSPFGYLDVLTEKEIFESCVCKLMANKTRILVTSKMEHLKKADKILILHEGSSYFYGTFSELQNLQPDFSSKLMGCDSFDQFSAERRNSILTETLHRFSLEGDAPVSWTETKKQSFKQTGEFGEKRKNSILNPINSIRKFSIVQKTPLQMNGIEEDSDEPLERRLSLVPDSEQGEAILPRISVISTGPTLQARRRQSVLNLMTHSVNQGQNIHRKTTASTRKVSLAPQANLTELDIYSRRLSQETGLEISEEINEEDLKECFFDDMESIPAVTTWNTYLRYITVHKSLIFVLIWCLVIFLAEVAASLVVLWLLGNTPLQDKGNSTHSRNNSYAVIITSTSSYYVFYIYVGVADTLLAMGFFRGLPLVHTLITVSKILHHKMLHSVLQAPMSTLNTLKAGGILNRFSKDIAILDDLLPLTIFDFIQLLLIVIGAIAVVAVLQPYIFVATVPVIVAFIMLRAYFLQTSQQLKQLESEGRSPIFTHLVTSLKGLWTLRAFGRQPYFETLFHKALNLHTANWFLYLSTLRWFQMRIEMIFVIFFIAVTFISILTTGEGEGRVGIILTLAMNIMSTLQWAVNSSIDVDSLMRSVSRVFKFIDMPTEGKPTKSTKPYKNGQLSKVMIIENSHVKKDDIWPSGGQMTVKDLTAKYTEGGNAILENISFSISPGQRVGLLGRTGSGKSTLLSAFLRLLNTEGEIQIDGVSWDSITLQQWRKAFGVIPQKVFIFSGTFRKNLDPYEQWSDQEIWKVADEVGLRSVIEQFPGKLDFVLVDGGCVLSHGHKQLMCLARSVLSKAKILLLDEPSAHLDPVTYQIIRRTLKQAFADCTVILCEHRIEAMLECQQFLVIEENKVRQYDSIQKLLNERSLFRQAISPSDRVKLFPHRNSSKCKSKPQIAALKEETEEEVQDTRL

EC50 [nM]	Emax [%]	Compound
1050	199	Cc1cc(CCNC(=O)[C@@H]2CC(=O)N(C)[C@@H](CC(C)C)C(=O)N3CCCC[C@@H]3C(=O)N[C@H](Cc3ccccc3)COc3ccnc(C)c3C(=O)N2)on1 [Example 444, (7S,11S,17aR,20R)-20-benzyl-11-isobutyl-4,10-dimethyl-N-(2-(3-methylisoxazol-5-yl)ethyl)-5,9,12,18-tetraoxo-5,6,7,8,9,10,11,12,15,16,17,17a,18,19,20,21-hexadecahydro-14H-dipyrido[2,1-f:3′,4′-p][1]oxa[4,7,10,14]tetraazacycloheptadecine-7-carboxamide]
958	194	Cc1cc(CCNC(=O)[C@@H]2CC(=O)N(C)[C@@H](CC(C)C)C(=O)N(C[C@H]3CCCCO3)CC(=O)N[C@H](Cc3ccccc3)COc3cnc4ccccc4c3C(=O)N2)on1 [Example 445, (3S,7S,13R)-13-benzyl-7-isobutyl-6-methyl-N-(2-(3-methylisoxazol-5-yl)ethyl)-1,5,8,11-tetraoxo-9-(((R)-tetrahydro-2H-pyran-2-yl)methyl)-1,2,3,4,5,6,7,8,9,10,11,12,13,14-tetradecahydro-[1]oxa[4,7,10,14]tetraazacycloheptadecino[17,16-c]quinoline-3-carboxamide]
900	248	Cc1cc(CCNC(=O)[C@@H]2CC(=O)N(C)[C@@H](CC(C)C)C(=O)N(CC[C@@H]3CCCCO3)CC(=O)N[C@H](Cc3ccccc3)COc3cnc4ccccc4c3C(=O)N2)on1 [Example 446, (3S,7S,13R)-13-benzyl-7-isobutyl-6-methyl-N-(2-(3-methylisoxazol-5-yl)ethyl)-1,5,8,11-tetraoxo-9-(2-((S)-tetrahydro-2H-pyran-2-yl)ethyl)-1,2,3,4,5,6,7,8,9,10,11,12,13,14-tetradecahydro-[1]oxa[4,7,10,14]tetraazacycloheptadecino[17,16-c]quinoline-3-carboxamide]
961	109	Cc1cc(CCNC(=O)[C@@H]2CC(=O)N(C)[C@@H](CC(C)C)C(=O)N(C)C3(CC3)C(=O)N[C@H](Cc3ccccc3)COc3nc4ccccn4c3C(=O)N2)on1 [Example 448, (3′R,9′S,13′S)-3′-benzyl-9′-isobutyl-7′,10′-dimethyl-N-(2-(3-methylisoxazol-5-yl)ethyl)-5′,8′,11′,15′-tetraoxo-2′,3′,4′,5′,8′,9′,10′,11′,12′,13′,14′,15′-dodecahydro-7′H-spiro[cyclopropane-1,6′-pyrido[2′,11:2,3]imidazo[4,5-p][1]oxa[4,7,10,14]tetraazacycloheptadecine]-13′-carboxamide]
886	292	Cc1cc(CCNC(=O)[C@@H]2CC(=O)N(C)[C@@H](CC(C)C)C(=O)N3CCN(CCCO)C[C@@H]3C(=O)N[C@H](Cc3ccccc3)COc3ccc4ccccc4c3C(=O)N2)on1 [Example 452, (4aR,7R,18S,22S)-7-benzyl-3-(3-hydroxypropyl)-22-isobutyl-21-methyl-N-(2-(3-methylisoxazol-5-yl)ethyl)-5,16,20,23-tetraoxo-2,3,4,4a,5,6,7,8,16,17,18,19,20,21,22,23-hexadecahydro-1H-naphtho[1,2-p]pyrazino[2,1-f][1]oxa[4,7,10,14]tetraazacycloheptadecine-18-carboxamide]
417	251	CC(C)C[C@H]1C(=O)N(C)C2(CC2)C(=O)N[C@H](Cc2ccccc2)COc2cnc3ccccc3c2C(=O)N[C@H](C(=O)NCCc2cccc(-n3nccn3)c2)CC(=O)N1C [Example 453, (3′S,7′S,13′R)-N-(3-(2H-1,2,3-triazol-2-yl)phenethyl)-13′-benzyl-7′-isobutyl-6′,9′-dimethyl-1′,5′,8′,11′-tetraoxo-2′,3′,4′,5′,6′,7′,8′,9′,11′,12′,13′,14′-dodecahydro-1′H-spiro[cyclopropane-1,10′-[1]oxa[4,7,10,14]tetraazacycloheptadecino[17,16-c]quinoline]-3′-carboxamide]
234	236	CC(C)C[C@H]1C(=O)N(C)C2(CC2)C(=O)N[C@H](Cc2ccccc2)COc2cnc3ccccc3c2C(=O)N[C@H](C(=O)NCCc2ccc(-n3nccn3)cc2)CC(=O)N1C [Example 454, (3′S,7′S,13′R)-N-(4-(2H-1,2,3-triazol-2-yl)phenethyl)-13′-benzyl-7′-isobutyl-6′,9′-dimethyl-1′,5′,8′,11′-tetraoxo-2′,3′,4′,5′,6′,7′,8′,9′,11′,12′,13′,14′-dodecahydro-1′H-spiro[cyclopropane-1,10′-[1]oxa[4,7,10,14]tetraazacycloheptadecino[17,16-c]quinoline]-3′-carboxamide]
677	211	Cc1cc(CCNC(=O)[C@@H]2CC(=O)N(C)[C@@H](CC(C)C)C(=O)N3CCCC[C@@H]3C(=O)N[C@H](Cc3ccccc3)COc3ccc4c(c3C(=O)N2)OCC4)on1 [Example 455, (8S,12S,18aR,21R)-21-benzyl-12-isobutyl-11-methyl-N-(2-(3-methylisoxazol-5-yl)ethyl)-6,10,13,19-tetraoxo-3,4,6,7,8,9,10,11,12,13,16,17,18,18a,19,20,21,22-octadecahydro-15H-benzofuro[7,6-p]pyrido[2,1-f][1]oxa[4,7,10,14]tetraazacycloheptadecine-8-carboxamide]
326	144	COCCN1C(=O)[C@H](CC(C)C)N(C)C(=O)C[C@@H](C(=O)NCCc2cccc(OC)c2)NC(=O)c2c(ccc3ccccc23)OC[C@@H](Cc2ccccc2)NC(=O)C12CC2 [Example 457, (3′S,7′S,13′R)-13′-benzyl-7′-isobutyl-9′-(2-methoxyethyl)-N-(3-methoxyphenethyl)-6′-methyl-1′,5′,8′,11′-tetraoxo-2′,3′,4′,5′,6′,7′,8′,9′,11′,12′,13′,14′-dodecahydro-1′H-spiro[cyclopropane-1,10′-naphtho[1,2-p][1]oxa[4,7,10,14]tetraazacycloheptadecine]-3′-carboxamide]

Compound	EC50 [nM]	Emax [%]
COc1cccc(CCNC(=O)[C@@H]2CC(=O)N(C)[C@@H](CC(C)C)C(=O)N(C)C3(CC3)C(=O)N[C@H](Cc3ccccc3)COc3ccc4c(c3C(=O)N2)OCC4)c1 [Example 447, (8R,14S,18S)-8-benzyl-14-isobutyl-N-(3-methoxyphenethyl)-12,15-dimethyl-10,13,16,20-tetraoxo-2,3,7,8,9,10,13,14,15,16,17,18,19,20-tetradecahydro-12H-spiro[benzofuro[7,6-p][1]oxa[4,7,10,14]tetraazacycloheptadecine-11,1′-cyclopropane]-18-carboxamide]	447	220
COc1cccc(CCNC(=O)[C@@H]2CC(=O)N(C)[C@@H](CC(C)C)C(=O)N(C)CC(=O)N[C@H](Cc3ccccc3)COc3nc4ccccn4c3C(=O)N2)c1 [Example 449, (3R,9S,13S)-3-benzyl-9-isobutyl-N-(3-methoxyphenethyl)-7,10-dimethyl-5,8,11,15-tetraoxo-2,3,4,5,6,7,8,9,10,11,12,13,14,15-tetradecahydropyrido[2′,1′:2,3]imidazo[4,5-p][1]oxa[4,7,10,14]tetraazacycloheptadecine-13-carboxamide]	543	165
COc1cccc(CCNC(=O)[C@@H]2CC(=O)N(C)[C@@H](CC(C)C)C(=O)N(C)CC(=O)N[C@H](Cc3ccccc3)COc3ccc4c(c3C(=O)N2)CCO4)c1 [Example 450, (3S,7S,13R)-13-benzyl-7-isobutyl-N-(3-methoxyphenethyl)-6,9-dimethyl-1,5,8,11-tetraoxo-1,2,3,4,5,6,7,8,9,10,11,12,13,14,19,20-hexadecahydrobenzofuro[4,5-p][1]oxa[4,7,10,14]tetraazacycloheptadecine-3-carboxamide]	379	107
COc1cccc(CCNC(=O)[C@@H]2CC(=O)N(C)[C@@H](CC(C)C)C(=O)N3CCN(CCCO)C[C@@H]3C(=O)N[C@H](Cc3ccccc3)COc3ccc4ccccc4c3C(=O)N2)c1 [Example 451, (4aR,7R,18S,22S)-7-benzyl-3-(3-hydroxypropyl)-22-isobutyl-N-(3-methoxyphenethyl)-21-methyl-5,16,20,23-tetraoxo-2,3,4,4a,5,6,7,8,16,17,18,19,20,21,22,23-hexadecahydro-1H-naphtho[1,2-p]pyrazino[2,1-f][1]oxa[4,7,10,14]tetraazacycloheptadecine-18-carboxamide]	257	307
COc1cccc(CCNC(=O)[C@@H]2CC(=O)N(C)[C@@H](CC(C)C)C(=O)N3CCCC[C@@H]3C(=O)N[C@H](Cc3ccccc3)COc3ccc4c(c3C(=O)N2)OCC4)c1 [Example 456, (8S,12S,18aR,21R)-21-benzyl-12-isobutyl-N-(3-methoxyphenethyl)-11-methyl-6,10,13,19-tetraoxo-3,4,6,7,8,9,10,11,12,13,16,17,18,18a,19,20,21,22-octadecahydro-15H-benzofuro[7,6-p]pyrido[2,1-f][1]oxa[4,7,10,14]tetraazacycloheptadecine-8-carboxamide]	250	185
Cc1cc(CCNC(=O)[C@@H]2CC(=O)N(C)[C@@H](CC(C)C)C(=O)N3CCN(C(=O)OCC(Cl)(Cl)Cl)C[C@@H]3C(=O)N[C@H](Cc3ccccc3)COc3cnc4ccccc4c3C(=O)N2)on1 [Example 458, 2,2,2-trichloroethyl (9S,13S,19aR,22R)-22-benzyl-13-isobutyl-12-methyl-9-((2-(3-methylisoxazol-5-yl)ethyl)carbamoyl)-7,11,14,20-tetraoxo-7,8,9,10,11,12,13,14,16,17,19,19a,20,21,22,23-hexadecahydro-18H-pyrazino[2′,1′:6,7][1]oxa[4,7,10,14]tetraazacycloheptadecino[17,16-c]quinoline-18-carboxylate]	209	238
